Legend:
[1] = system: Aβ1-40; test: Measurement of Aβ1-40 in culture medium of 7W WT APP751 CHO cells by ELISA; format: cell-based, Chinese hamster; conditions: for activity at 5 µM: Cricetulus griseus, Table 1, 5 μM test compound, CHO cells stably transfected with human APP751, culture medium, ELISA, control DMSO, 0 = no detectable amount; for Aβ1-40 (% of control): CHO cells that overexpress APP751, zero = below the detection limit of the assay
[2] = system: Aβ1-42; test: Measurement of Aβ1-42 in culture medium of 7W WT APP751 CHO cells by ELISA; format: cell-based, Chinese hamster; conditions: for activity at 5 µM: Cricetulus griseus, Table 1, 5 μM test compound, CHO cells stably transfected with human APP751, culture medium, ELISA, control DMSO, 0 = no detectable amount, read-out: Aβ1-42 (% of control); for Aβ1-42 (% of control): CHO cells that overexpress APP751, zero = below the detection limit of the assay
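Also: 5 µM test compound but RI-coded compounds at 10 µM for 24 hours.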

Row | Compound | activity at 5 µM [1] [%] | activity at 5 µM [2] [%] | Aβ1-40 (% of control) [1] | Aβ1-42 (% of control) [2]
1 | CCc1ccc(C2C(C(=O)OCc3ccccc3)=C(C)NC3=C2C(=O)CC(c2ccccc2)C3)cc1 (centres unmarked) [ST013390, phenylmethyl 4-(4-ethylphenyl)-2-methyl-5-oxo-7-phenyl-1,4,6,7,8-pentahydroquinoline-3-carboxylate] | 23.4 | 98.3 |  | 
2 | CC1=C(C#N)C(c2ccc(Cl)cc2)C2=C(CC(C)(C)CC2=O)N1 (centres unmarked) [ST013410, 4-(4-chlorophenyl)-2,7,7-trimethyl-5-oxo-1,4,6,7,8-pentahydroquinoline-3-carbonitrile] | 22 | 26 |  | 
3 | CCCCOC(=O)C1=C(C)NC2=C(C(=O)CCC2)C1c1cccc(Cl)c1 (centres unmarked) [ST013428, butyl 4-(3-chlorophenyl)-2-methyl-5-oxo-1,4,6,7,8-pentahydroquinoline-3-carboxylate] | 25.1 | 40.9 |  | 
4 | COc1ccc(C2C(C(=O)OC3CCCCC3)=C(C)NC3=C2C(=O)CCC3)cc1Br (centres unmarked) [ST013429, cyclohexyl 4-(3-bromo-4-methoxyphenyl)-2-methyl-5-oxo-1,4,6,7,8-pentahydroquinoline-3-carboxylate] | 31.9 | 45.4 |  | 
5 | CCOCCOC(=O)C1=C(C)NC2=C(C(=O)CCC2)C1c1ccc(OC(C)=O)cc1 (centres unmarked) [ST013435, 4-{3-[(2-ethoxyethyl)oxycarbonyl]-2-methyl-5-oxo-4-1,4,6,7,8-pentahydroquinolyl}phenyl acetate] | 64.7 | 70.1 |  | 
6 | CC1=C(C(=O)OC2CCCCC2)C(c2ccc(C)cc2)C2=C(CC(c3ccccc3)CC2=O)N1 (centres unmarked) [ST013438, cyclohexyl 2-methyl-4-(4-methylphenyl)-5-oxo-7-phenyl-1,4,6,7,8-pentahydroquinoline-3-carboxylate] | 31.5 | 93.5 |  | 
7 | CC1=C(C(=O)OC(C)C)C(c2cccc(Cl)c2Cl)C2=C(CC(c3ccccc3)CC2=O)N1 (centres unmarked) [ST013439, methylethyl 4-(2,3-dichlorophenyl)-2-methyl-5-oxo-7-phenyl-1,4,6,7,8-pentahydroquinoline-3-carboxylate] | 19.7 | 80.3 |  | 
8 | COC(=O)CSC1=C(C#N)C(c2cccs2)C(C(C)=O)=C(C)N1 (centres unmarked) [ST014038, methyl 2-(5-acetyl-3-cyano-6-methyl-4-(2-thienyl)-2-1,4-dihydropyridylthio)acetate] |  |  | 29.98 % of control | 21.82 % of control
9 | COC(=O)C1=C(C)NC(SCC(=O)c2cccs2)=C(C#N)C1c1ccc2c(c1)OCCO2 (centres unmarked) [ST014052, methyl 4-(2H,3H-benzo[3,4-e]1,4-dioxan-6-yl)-5-cyano-2-methyl-6-(2-oxo-2-(2-thienyl)ethylthio)-1,4-dihydropyridine-3-carboxylate] |  |  | 49 % of control | 74.69 % of control
10 | N#CC1=C(N)NC(S)=C(C#N)C1c1cccc(Br)c1 (centres unmarked) [ST014065, 6-amino-4-(3-bromophenyl)-2-sulfanyl-1,4-dihydropyridine-3,5-dicarbonitrile] |  |  | 18.6 % of control | 30.01 % of control
11 | CC1(C)CC(=O)C2=C(C1)N(Cc1ccccc1)C(N)=C(C#N)C21CCOCC1 [ST014138, 2-amino-7,7-dimethyl-5-oxo-1-benzylspiro[1,4,6,7,8-pentahydroquinoline-4,4′-2′ H-3′,4,5′,6′-tetrahydropyran]-3-carbonitrile] | 64.1 | 65.3 |  | 
12 | N#CC1=C(N)Nc2c(c(=O)oc3ccccc23)C1c1ccc(Cl)cc1 (centres unmarked) [ST014144, 2-amino-4-(4-chlorophenyl)-5-oxo-1,4-dihydrochromeno[4,3-b]pyridine-3-carbonitrile] |  |  | 66.08 % of control | 66.02 % of control
13 | N#CC1=C(N)Nc2c(c(=O)oc3ccccc23)C1c1ccc(Br)cc1 (centres unmarked) [ST014147, 2-amino-4-(4-bromophenyl)-5-oxo-1,4-dihydrochromeno[4,3-b]pyridine-3-carbonitrile] |  |  | 82.09 % of control | 68.55 % of control

Reference: patent publication US20100119599A1 (ARCHER PHARMACEUTICALS, INC., priority 2006, published 2010)
